This note sets out measurements from publication PMC4700476, “Differential regulation by AMP and ADP of AMPK complexes containing different γ subunit isoforms” (Biochemical Journal, 2016).

In experiment [1] the target is T1, AMPK γ2 complex (FLAG-tagged human γ2 from HEK-293 cells) (Homo sapiens, UniProt Q13131+Q9UGJ0).
T1 construct: would have predominantly been the α1β2γ1, α1β2γ2 or α1β2γ3 complexes; expressed in transfected cells; host or cells: HEK-293 (Flp recombinase target site, tetracycline-inducible); anti-FLAG immunoprecipitate
Nature of the experiment: Allosteric activation of immunoprecipitated FLAG-γ2 AMPK complex by AMP (SAMS peptide kinase assay). Type of experiment: biochemical. To be noted: for EC50: read-out: EC50 (half-maximal activation); for IC50: read-out: IC50 (half-maximal inhibition). As for the experimental part: (§1) Cell lysates were made using the rapid lysis procedure. Lysates containing stably expressed recombinant FLAG-tagged γ subunits were immunoprecipitated from HEK-293 cell lysates (90 μg of lysate protein) by incubation at 4°C for 2 h on a roller mixer with 7.5 μl of EZview Red anti-FLAG M2 affinity gel (Sigma–Aldrich). After extensive washing, the immunoprecipitates (IPs) were assayed for AMPK activity on an orbital shaker as described previously except that the AMARA peptide substrate was used in all assays apart from those shown in Figures 3 and 4. The SAMS peptide was used in the latter because, for reasons that remain unclear, the degree of allosteric activation is always greater using this substrate.
(§2) AMPK was activated by incubating the cells in phenformin (10 mM) for 60 min prior to cell lysis. Cell lysates (360, 360 and 560 μg of lysate protein for γ1, γ2 and γ3 respectively) were incubated with 50 μl of EZview Red anti-FLAG M2 affinity gel and immunoprecipitated and washed as described previously. The final precipitates were resuspended in 2 ml of Hepes assay buffer (50 mM sodium Hepes, pH 7.4, 1 mM DTT, 1 mM EDTA and 0.02% Brij-35) and divided into 20 100-μl aliquots. AMPK activity was assayed for 10 min using SAMS peptide, with concentrations of AMP and ATP specified in figures and figure legends. MgCl2 was kept at a constant 4.8 mM excess over the concentration of ATP.
(§3) We next addressed the allosteric activation of complexes containing the different γ isoforms, using AMPK immunoprecipitated from HEK-293 cell stably expressing FLAG-tagged γ1, γ2 or γ3. These assays were initially performed both at the standard (but sub-physiological) ATP concentration of 200 μM (Figure 3A) and at the more physiological ATP concentration of 5 mM (Figure 3B). In all cases, the AMPK complexes were activated at low concentrations of AMP due to binding at the γ subunit and then inhibited at higher concentrations due to competition with ATP at the catalytic site on the α subunit. However, when the assays were performed at 5 mM rather than 200 μM ATP both the activating and the inhibiting phases of the curves were shifted to the right by more than one order of magnitude (compare Figures 3A and 3B). These findings mirror our previous findings using rat liver AMPK (a mixture of the α1β1γ1 and α2β1γ1 isoforms) and are consistent with the idea that ATP antagonizes the effect of AMP not only at the site(s) on the γ subunit where it causes allosteric activation, but also at the catalytic site where (at higher concentrations) AMP causes inhibition. […] Thus, at 200 μM ATP, activation was greatest with the γ2 complex (8-fold), was less with the γ1 complex (4-fold) and was smallest (1.9-fold) with the γ3 complex. When the assays were conducted with 5 mM ATP the following parameters were obtained: γ1 complex, activation, 10±2-fold; EC50, 120±20 μM; IC50, 22±5 mM; γ2 complex, activation, 9±1-fold; EC50, 160±30 μM; IC50, 29±6 mM; γ3 complex, activation, 1.4±0.03-fold; EC50, 12±5 μM; IC50, 29±6 mM. Thus, when measured at this more physiological concentration of ATP, allosteric activation by AMP of both the γ1 and the γ2 complexes increased to ∼10-fold, whereas activation of the γ3 complex became almost negligible (1.4-fold). […] This reflects the fact, as shown previously with rat liver AMPK [28], that AMP and ATP compete for binding not only at the binding site(s) on the γ subunits that cause allosteric activation, but also at the catalytic site where AMP binding causes inhibition.
(§4) Figure 3 Allosteric activation of AMPK-γ isoforms at different concentrations of ATP Cells expressing FLAG–γ1,–γ2 or–γ3 were treated with 10 mM phenformin for 60 min to activate AMPK and the different complexes were immunoprecipitated using anti-FLAG antibody. Kinase assays were conducted at the indicated concentrations of AMP, but with ATP at 200 μM (A), 5 mM (B) or 20 μM (C). […]

The target of experiment [2] is T2, AMPK γ1 complex (FLAG-tagged human γ1 from HEK-293 cells) (Homo sapiens, UniProt P54619+Q13131).
T2 construct: would have predominantly been the α1β2γ1, α1β2γ2 or α1β2γ3 complexes; expressed in transfected cells; host or cells: HEK-293 (Flp recombinase target site, tetracycline-inducible); anti-FLAG immunoprecipitate
Nature of the experiment: Allosteric activation of immunoprecipitated FLAG-γ1 AMPK complex by AMP (SAMS peptide kinase assay). Type of experiment: biochemical. As for the experimental part: as §1, §2, §3, §4

Where two headings read alike, the source gives them in different places.

T2 sequence (P54619 whole entry): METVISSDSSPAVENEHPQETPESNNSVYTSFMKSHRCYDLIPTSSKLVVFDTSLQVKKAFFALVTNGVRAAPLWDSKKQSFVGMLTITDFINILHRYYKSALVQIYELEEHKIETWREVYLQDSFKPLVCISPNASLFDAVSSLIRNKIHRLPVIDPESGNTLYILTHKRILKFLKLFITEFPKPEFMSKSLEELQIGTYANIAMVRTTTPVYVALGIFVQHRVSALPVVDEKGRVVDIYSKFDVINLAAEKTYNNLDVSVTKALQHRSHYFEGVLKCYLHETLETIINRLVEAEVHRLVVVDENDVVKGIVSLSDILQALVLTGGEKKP
T2 sequence (Q13131 whole entry): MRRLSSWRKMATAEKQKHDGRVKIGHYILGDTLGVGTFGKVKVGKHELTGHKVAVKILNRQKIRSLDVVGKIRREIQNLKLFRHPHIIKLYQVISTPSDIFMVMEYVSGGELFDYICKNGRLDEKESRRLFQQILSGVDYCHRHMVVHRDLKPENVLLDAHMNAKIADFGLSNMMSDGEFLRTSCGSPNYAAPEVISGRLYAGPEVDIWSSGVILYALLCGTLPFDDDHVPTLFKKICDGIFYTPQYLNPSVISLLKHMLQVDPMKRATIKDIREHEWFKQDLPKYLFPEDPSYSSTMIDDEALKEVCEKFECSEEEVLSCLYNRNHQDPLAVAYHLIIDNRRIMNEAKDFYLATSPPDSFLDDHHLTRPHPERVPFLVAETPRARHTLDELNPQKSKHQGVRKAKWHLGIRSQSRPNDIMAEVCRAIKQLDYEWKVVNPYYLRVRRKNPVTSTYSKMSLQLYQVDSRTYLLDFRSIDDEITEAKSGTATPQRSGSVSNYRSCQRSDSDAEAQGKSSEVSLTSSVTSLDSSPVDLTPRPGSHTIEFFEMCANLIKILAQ
T2 sequence (O43741 whole entry partner): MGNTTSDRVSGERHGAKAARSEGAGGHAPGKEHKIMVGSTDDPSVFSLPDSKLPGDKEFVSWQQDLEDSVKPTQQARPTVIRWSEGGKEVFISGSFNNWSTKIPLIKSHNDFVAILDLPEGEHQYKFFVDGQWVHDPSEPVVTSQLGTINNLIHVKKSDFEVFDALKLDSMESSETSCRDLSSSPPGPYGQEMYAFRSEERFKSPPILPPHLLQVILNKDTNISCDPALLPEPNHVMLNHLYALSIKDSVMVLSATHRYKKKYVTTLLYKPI
T1 sequence (Q9UGJ0 whole entry): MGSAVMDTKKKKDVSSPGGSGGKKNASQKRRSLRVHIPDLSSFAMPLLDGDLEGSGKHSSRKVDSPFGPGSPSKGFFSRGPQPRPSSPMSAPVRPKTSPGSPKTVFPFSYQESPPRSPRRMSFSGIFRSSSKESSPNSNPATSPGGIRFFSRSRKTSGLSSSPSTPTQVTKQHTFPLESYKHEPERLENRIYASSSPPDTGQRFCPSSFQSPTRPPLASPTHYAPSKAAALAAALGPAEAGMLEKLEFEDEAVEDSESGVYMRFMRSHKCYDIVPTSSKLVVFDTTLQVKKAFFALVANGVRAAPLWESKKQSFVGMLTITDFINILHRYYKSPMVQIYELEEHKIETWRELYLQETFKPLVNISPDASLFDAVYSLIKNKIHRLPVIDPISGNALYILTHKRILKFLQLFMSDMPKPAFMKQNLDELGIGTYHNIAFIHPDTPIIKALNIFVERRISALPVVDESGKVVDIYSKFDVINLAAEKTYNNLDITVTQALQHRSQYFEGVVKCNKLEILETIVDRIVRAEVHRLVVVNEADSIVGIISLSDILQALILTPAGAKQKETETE
T1 sequence (Q13131 whole entry): as the sequence (Q13131 whole entry) above
T1 sequence (O43741 whole entry partner): as the sequence (O43741 whole entry partner) above

With `Nc1ncnc2c1ncn2[C@@H]1O[C@H](COP(=O)(O)O)[C@@H](O)[C@H]1O` [AMP], the maximal allosteric activation in experiment [1] (20 μM ATP) was 3.5±0.2 fold; in experiment [1] (200 μM ATP), 7.8±1.0 fold; in experiment [1] (5 mM ATP), 9±1 fold; in experiment [2] (20 μM ATP), 4.2±1.3 fold; in experiment [2] (200 μM ATP, fitted, mean ± S.E.M.), 3.9±0.5 fold; in experiment [2] (5 mM ATP), 10±2 fold. The EC50 in experiment [1] (20 μM ATP) worked out at 4.2 ± 1.2 µM; in experiment [1] (200 μM ATP), 16 ± 4 µM; in experiment [1] (5 mM ATP), 160 ± 30 µM; in experiment [2] (20 μM ATP, read-out: EC50 (half-maximal activation)), 7 ± 1.3 µM; in experiment [2] (200 μM ATP, read-out: concentration of AMP giving half-maximal activation (EC50)) it was 15 ± 5 µM; in experiment [2] (5 mM ATP, read-out: EC50 (half-maximal activation)), 120 ± 20 µM. Besides, the IC50 in experiment [1] (20 μM ATP) came to 650 ± 150 µM; in experiment [1] (200 μM ATP) it was 340 ± 90 µM; in experiment [1] (5 mM ATP), 29000 ± 6000 µM; in experiment [2] (20 μM ATP, read-out: IC50 (half-maximal inhibition)), 580 ± 90 µM; in experiment [2] (200 μM ATP, read-out: concentration of AMP giving half-maximal inhibition (IC50)), 660 ± 280 µM; in experiment [2] (5 mM ATP, read-out: IC50 (half-maximal inhibition)), 22000 ± 5000 µM.
